Read-outs that look alike come from different tables or passages of the source.
Experiments:
[1] = PK in mouse brain after i.v. and oral delivery, cassette study in HCT116 tumor-bearing mice; type: in vivo
[2] = PK profile of compound 15 after oral 30 mg/kg, single dose study; type: in vivo, mice; conditions: female, athymic nude (CD-1 nu/nu), mouse, plasma
Experimental: Female athymic nude (CD-1 nu/nu) were obtained from Charles River Laboratories (Wilmington, Mass.). They were housed in ventilated micro-isolator cages in Curis animal facility conditioned at temperature of 23±1° C., humidity of 50-70%, and a 12-hour light/12-hour dark cycle. The animals were fed with irradiated laboratory rodent diet ad libitum and provided with sterilized water. […] The cell pellet was diluted in HBSS (Hank's balanced salt solution) for implantation. […] The concentration for each compound in the solution was kept below 5 mg/ml. The maximum number of compound in one cassette was 6.30% Captisol (Cydex) was used for all formulation. At various time points (3 mice per time point) following compound administration, mice were euthanized with CO2, blood and tissues were collected. Blood was collected into tubes containing sodium heparin. The plasma was separated via centrifugation and stored at −40° C. before analysis. Tissues including tumors were homogenized in 0.8 ml water. An internal standard was added into the tissue homogenates. The homogenates were extracted with 1 ml ethyl acetate for three times. After evaporation, the residual was reconstituted in 0.1 ml acetonitrile for LC/MS/MS assay (Agilent HPLC 1100 Series).

[3] = Mouse brain concentrations after oral 30 mg/Kg in nude mice with U87MG xenografts; type: in vivo
[4] = tested on: cancer derived HSP90 complex (H1975 NSCLC cell extracts); experiment: Fluorescence polarization geldanamycin competition binding with H1975 cell extract
[5] = tested on: cancer derived HSP90 complex (H1993 NSCLC cell extracts); experiment: Fluorescence polarization geldanamycin competition binding with H1993 cell extract
H1993 NSCLC cells = experiment: Western blot of H1993 NSCLC cells after short-term treatment; type: cell-based; conditions: 1 μmol/L for 7 hours
H1975 NSCLC cells = experiment: Western blot of H1975 NSCLC cells after short-term treatment; type: cell-based; conditions: 1 μmol/L for 7 hours
[6] = tested on: HSP90 client proteins in U87MG s.c. tumors; experiment: Pharmacodynamic Western blot analysis of U87MG s.c. tumors; type: in vivo, nude mice; conditions: U87MG s.c. tumors, 40, 80 or 160 mg/kg oral every other day, 21 days
[7] = tested on: HSP90 client proteins in H1975 subcutaneous tumors; experiment: Pharmacodynamic study in H1975 subcutaneous tumors, single dose; type: in vivo; conditions: single dose 160 mg/kg
H1975 subcutaneous tumor = experiment: Efficacy study in the H1975 subcutaneous tumor model (80, 120, 160 mg/kg); type: in vivo, nude mice; conditions: H1975 s.c., 80, 120, or 160 mg/kg orally once every 2 days
Excerpt: Cells (3.5×106) were implanted subcutaneously into nude mice.

[8] = tested on: H1975 orthotopic lung tumor; experiment: Efficacy study in the H1975 orthotopic lung tumor (NSCLC) model; type: in vivo, nude mice
Experimental: Dose-dependent efficacy study of Compound-15 in H1975 orthotopic lung tumor model (n=11): Mice were treated with Compound-15 (20, 40, 80, and 120 mg/kg) starting 4 day after tumor implantation.

H1975 intracranial tumor = experiment: Efficacy study in H1975 intracranial metastasis model; type: in vivo, nude mice; conditions: Compound-15 120 mg/kg orally once every two days, lapatinib 75 mg/kg orally twice a day, 4 wk
A549 subcutaneous tumors = experiment: Pharmacodynamic study in K-ras-mutated A549 subcutaneous tumors; type: in vivo; conditions: 160 mg/kg, 6- and 24-h time points
A549 subcutaneous tumor = experiment: Efficacy study in A549 subcutaneous tumor model; type: in vivo, nude mice; conditions: A549 s.c., 160 mg/kg orally once every two days
[9] = tested on: A549 orthotopic lung tumor; experiment: Efficacy study in A549 orthotopic lung tumor model; type: in vivo, nude mice; conditions: Compound-15 120 mg/kg orally once every two days, erlotinib 50 mg/kg orally once a day, 4 wk
MV4-11 AML s.c. tumor = experiment: Efficacy study in MV4-11 s.c. tumor model; type: in vivo, sever combined immunodeficient mice; conditions: 160 mg/kg orally q2d, three weeks, pretreatment volume 146 mm^3
Excerpt: In an efficacy study using MV4-11 s.c. tumor model (n=8), MV4-11 AML tumor cells (20×10^6) were implanted s.c. into sever combined immunodeficient mice.

[10] = tested on: H1975 (NSCLC) s.c. tumors; experiment: PD study after single oral dosing in H1975 (NSCLC) s.c. tumors; type: in vivo; conditions: single oral dosing 80 mg/kg, 8 h
H1975 NSCLC s.c. tumor = experiment: Efficacy study in the H1975 s.c. tumor model (160 mg/kg q2d); type: in vivo, nude mice; conditions: 160 mg/kg orally q2d, 3 wk
Experimental: H1975 NSCLC cells (5×10^6) were implanted s.c. into nude mice. Treatment with Compound-15 (160 mg/kg, orally, q2d) started when tumors reached an average volume of 160 mm^3.

[11] = tested on: MDA-MB-468 breast cancer orthotopic tumor; experiment: Efficacy study in the MDA-MB-468 orthotopic tumor model; type: in vivo, nude mice; conditions: Compound-15 120 mg/kg orally q2d, paclitaxel 12.5 mg/kg i.p. twice weekly
[12] = tested on: Colo205 colorectal cancer s.c. tumor; experiment: Efficacy study in the Colo205 s.c. tumor model; type: in vivo, nude mice; conditions: 120 mg/kg orally q2d
[13] = female, athymic nude (CD-1 nu/nu), mouse, iv, i.v. delivery (Cassette Study), read-out: HSP90 Compounds in Mouse Brain
[14] = female, athymic nude (CD-1 nu/nu), mouse, oral delivery (10 mg/g Cassette Study), read-out: HSP90 Compounds in Mouse Brain
[15] = then compound-free medium 0, 17 or 24 hours

**Q.** With `CN(C)c1cc2c(cc1Sc1nc3c(N)nccc3n1CCNCC(C)(C)C)OCO2` [Compound 15, 2-(6-(dimethylamino)benzo[d][1,3]dioxol-5-ylthio)-1-(2-(neopentylamino)ethyl)-1H-imidazo[4,5-c]pyridin-4-amine] as the compound, how does the concentration at 0.08333 hr ([1]; female, athymic nude (CD-1 nu/nu), mouse, iv, i.v. delivery (Cassette Study), Time 0.08333 hr, read-out: HSP90 Compounds in Mouse Brain) read?
**A.** The concentration at 0.08333 hr was 3240 ng/g.

**Q.** What about the concentration at 0.5 hr [1, 13] of the same compound?
**A.** The concentration at 0.5 hr was 1450 ng/g.

**Q.** And the concentration at 2 hr [1, 13]?
**A.** The concentration at 2 hr was 773 ng/g.

**Q.** What about the concentration at 6 hr [1, 13] of the same compound?
**A.** Its concentration at 6 hr is 177 ng/g.

**Q.** And the concentration at 24 hr [1, 13]?
**A.** Its concentration at 24 hr is 27 ng/g.

**Q.** What about the concentration at 48 hr [1, 13] of the same compound?
**A.** Its concentration at 48 hr is 4.8 ng/g.

**Q.** What about the concentration at 0.5 hr [1, 14] of the same compound?
**A.** Its concentration at 0.5 hr is 61.2 ng/g.

**Q.** And the concentration at 2 hr [1, 14]?
**A.** Its concentration at 2 hr is 256 ng/g.

**Q.** And the concentration at 6 hr [1, 14]?
**A.** Its concentration at 6 hr is 218 ng/g.

**Q.** And the concentration at 24 hr [1, 14]?
**A.** Its concentration at 24 hr is 5.9 ng/g.

**Q.** And the concentration at 48 hr [1, 14]?
**A.** Its concentration at 48 hr is 0.7 ng/g.

**Q.** And the “AUC i.v. in the brain” value ([1]; i.v.)?
**A.** Its value is 6761.3 ng·h/g.

**Q.** And the “AUC p.o. in the brain” value ([1]; p.o.)?
**A.** The value was 3293.9 ng·h/g.

**Q.** And the “F (%) in the brain” value ([1]; p.o. vs i.v.)?
**A.** The value was 24.4%.

**Q.** And the AUC(0-inf) [2]?
**A.** The AUC(0-inf) was 10.5 µg·h/mL.

**Q.** What about the Cmax [2] of the same compound?
**A.** The Cmax was 1.38 µg/mL.

**Q.** And the Tmax [2]?
**A.** Its Tmax is 2 h.

**Q.** And the half-life [2]?
**A.** The half-life was 3.3 h.

**Q.** What about the AUC(0-t) ([2]; read-out: AUC0-24) of the same compound?
**A.** Its AUC(0-t) is 10.4 µg·h/mL.

**Q.** And the concentration at 0 hr ([3]; female, athymic nude (CD-1 nu/nu), mouse, brain, oral (30 mg/Kg) delivery, U87MG xenografts, Time 0 hr, read-out: HSP90 Compounds in Mouse Brain)?
**A.** Its concentration at 0 hr is 0 ng/g.

**Q.** And the concentration at 0.5 hr ([3]; female, athymic nude (CD-1 nu/nu), mouse, brain, oral (30 mg/Kg) delivery, U87MG xenografts, Time 0.5 hr, read-out: HSP90 Compounds in Mouse Brain)?
**A.** Its concentration at 0.5 hr is 66.4 ng/g.

**Q.** What about the concentration at 1 hr ([3]; female, athymic nude (CD-1 nu/nu), mouse, brain, oral (30 mg/Kg) delivery, U87MG xenografts, Time 1 hr, read-out: HSP90 Compounds in Mouse Brain) of the same compound?
**A.** Its concentration at 1 hr is 124 ng/g.

**Q.** What about the concentration at 3 hr ([3]; female, athymic nude (CD-1 nu/nu), mouse, brain, oral (30 mg/Kg) delivery, U87MG xenografts, Time 3 hr, read-out: HSP90 Compounds in Mouse Brain) of the same compound?
**A.** The concentration at 3 hr was 257 ng/g.

**Q.** And the concentration at 6 hr ([3]; female, athymic nude (CD-1 nu/nu), mouse, brain, oral (30 mg/Kg) delivery, U87MG xenografts, Time 6 hr, read-out: HSP90 Compounds in Mouse Brain)?
**A.** The concentration at 6 hr was 77.8 ng/g.

**Q.** What about the concentration at 24 hr ([3]; female, athymic nude (CD-1 nu/nu), mouse, brain, oral (30 mg/Kg) delivery, U87MG xenografts, Time 24 hr, read-out: HSP90 Compounds in Mouse Brain) of the same compound?
**A.** Its concentration at 24 hr is 3.2 ng/g.

**Q.** What about the “crossing (into brain)” value ([3]; nude mice with U87MG xenografts, oral 30 mg/Kg) of the same compound?
**A.** Its value is “superior results”.

**Q.** What about the “AUC in mouse brain” value ([3]; oral (30 mg/Kg) delivery, U87MG xenografts) of the same compound?
**A.** The value was 1692.2 ng·h/g.

**Q.** And the IC50 [4]?
**A.** Its IC50 is 0.0612 µM.

**Q.** What about the IC50 [5] of the same compound?
**A.** The IC50 was 0.0742 µM.

**Q.** And the “downstream PI3K/AKT and RAF/ERK signaling (p-AKT/AKT, p-ERK/ERK levels)” value (H1993 NSCLC cells)?
**A.** The value was “suppressed”.

**Q.** What about the “levels of phosphorylated-MET and total MET” value (H1993 NSCLC cells) of the same compound?
**A.** Its value is “reduced”.

**Q.** What about the “phosphorylated and total EGFR, MET, AKT, and MAPK (ERK)” value (H1993 NSCLC cells; [15]) of the same compound?
**A.** The value was “durably inhibited”.

**Q.** And the “downstream PI3K/AKT and RAF/ERK signaling (p-AKT/AKT, p-ERK/ERK levels)” value (H1975 NSCLC cells)?
**A.** Its value is “suppressed”.

**Q.** What about the “levels of phosphorylated-MET and total MET” value (H1975 NSCLC cells) of the same compound?
**A.** The value was “reduced”.

**Q.** What about the “phosphorylated and total EGFR, MET, AKT, and MAPK (ERK)” value (H1975 NSCLC cells; [15]) of the same compound?
**A.** The value was “durably inhibited”.

**Q.** And the “HSP90 client proteins in tumors (Western blot)” value [6]?
**A.** The value was “dose-dependent inhibition”.

**Q.** What about the “HSP70, a marker of HSP90 inhibition” value [7] of the same compound?
**A.** The value was “concurrent induction”.

**Q.** What about the “HSP90 client proteins in tumors” value [7] of the same compound?
**A.** The value was “potent inhibition”.

**Q.** And the “mutant EGFR” value [7]?
**A.** The value was “induced degradation”.

**Q.** And the “apoptosis (PARP and caspase-3 cleavages)” value ([7]; 6- and 24-hour time points)?
**A.** The value was “robustly induced apoptosis”.

**Q.** What about the body weight (H1975 subcutaneous tumor) of the same compound?
**A.** The body weight was “without significant loss”.

**Q.** What about the tumor growth (H1975 subcutaneous tumor) of the same compound?
**A.** The tumor growth was “Dose-dependent inhibition”.

**Q.** And the “animal survival, dose dependence” value ([8]; 20, 40, 80, and 120 mg/kg, 5-wk dosing regimen)?
**A.** The value was “dose-dependently extended animal survival”.

**Q.** And the animal survival ([8]; Compound-15 120 mg/kg orally once every two days, erlotinib 50 mg/kg orally once a day, 5 wk)?
**A.** The animal survival was “significantly prolonged animal survival”.

**Q.** What about the animal survival (H1975 intracranial tumor) of the same compound?
**A.** The animal survival was “significantly prolonged animal survival”.

**Q.** And the “HER2 and key components of the PI3K/AKT and RAF/MEK/ERK signaling pathways (Western blot)” value (A549 subcutaneous tumors)?
**A.** Its value is “Potent inhibition”.

**Q.** And the “HSP70 (Western blot)” value (A549 subcutaneous tumors)?
**A.** Its value is “concurrent induction”.

**Q.** And the T/C (A549 subcutaneous tumor)?
**A.** The T/C was 9.5%.

**Q.** And the tumor growth (A549 subcutaneous tumor)?
**A.** Its tumor growth is “Tumor stasis”.

**Q.** And the animal survival [9]?
**A.** Its animal survival is “significantly prolonged animal survival”.

**Q.** What about the tumor regression (MV4-11 AML s.c. tumor) of the same compound?
**A.** Its tumor regression is “complete tumor regression”.

**Q.** And the “EGFR and signaling molecules in tumors (Western blot)” value [10]?
**A.** The value was “inhibited”.

**Q.** What about the T/C (H1975 NSCLC s.c. tumor) of the same compound?
**A.** The T/C was 15.4%.

**Q.** What about the tumor regression [11] of the same compound?
**A.** Its tumor regression is 3.4%.

**Q.** What about the T/C [12] of the same compound?
**A.** The T/C was 14.2%.
